# Columns and labels:
# [1] = The drug is tested on Ruminococcus torques strain: ATCC27756 for biotransformation. The drug concentrations were measured before and after a 12-h incubation by liquid-chromatography-coupled mass spectrometry (LC–MS); type: ADME; set-up: dose 2 uM, timepoint 0 vs 12 hours; conditions: 2 µM
# [2] = bacteroides fragilis, 12 h, 2 µM
# Description: The drug is tested on Bacteroides fragilis strain: NCTC 9343 for biotransformation. The drug concentrations were measured before and after a 12-h incubation by liquid-chromatography-coupled mass spectrometry (LC–MS)
# [3] = The drug is tested on Alistipes indistinctus strain: DSM22520 for biotransformation. The drug concentrations were measured before and after a 12-h incubation by liquid-chromatography-coupled mass spectrometry (LC–MS); conditions: 2 µM
# [4] = The drug is tested on Clostridium ramosum strain: DSM1402 for biotransformation. The drug concentrations were measured before and after a 12-h incubation by liquid-chromatography-coupled mass spectrometry (LC–MS); conditions: thomasclavelia ramosa, 2 µM
# [5] = The drug is tested on Enterobacter cancerogenus strain: ATCC35316 for biotransformation. The drug concentrations were measured before and after a 12-h incubation by liquid-chromatography-coupled mass spectrometry (LC–MS); conditions: 2 µM
# [6] = anaerostipes sp., 12 h, 2 µM
# Description: The drug is tested on Anaerostipes sp. strain: fecal isolate for biotransformation. The drug concentrations were measured before and after a 12-h incubation by liquid-chromatography-coupled mass spectrometry (LC–MS)
# [7] = The drug is tested on Ruminococcus lactaris strain: ATCC29176 for biotransformation. The drug concentrations were measured before and after a 12-h incubation by liquid-chromatography-coupled mass spectrometry (LC–MS); conditions: 2 µM
# [8] = The drug is tested on Clostridium symbiosum strain: ATCC14940 for biotransformation. The drug concentrations were measured before and after a 12-h incubation by liquid-chromatography-coupled mass spectrometry (LC–MS); conditions: 2 µM
# [9] = The drug is tested on Bacteroides fragilis strain: HMW610 for biotransformation. The drug concentrations were measured before and after a 12-h incubation by liquid-chromatography-coupled mass spectrometry (LC–MS); conditions: 2 µM
# [10] = The drug is tested on Bacteroides cellulosilyticus strain: DSM14838 for biotransformation. The drug concentrations were measured before and after a 12-h incubation by liquid-chromatography-coupled mass spectrometry (LC–MS); conditions: 2 µM
# [11] = The drug is tested on Bacteroides dorei strain: DSM17855 for biotransformation. The drug concentrations were measured before and after a 12-h incubation by liquid-chromatography-coupled mass spectrometry (LC–MS); conditions: phocaeicola dorei, 2 µM
# [12] = The drug is tested on Collinsella intestinalis strain: DSM13280 for biotransformation. The drug concentrations were measured before and after a 12-h incubation by liquid-chromatography-coupled mass spectrometry (LC–MS); conditions: 2 µM
# [13] = The drug is tested on Blautia luti strain: DSM14534 for biotransformation. The drug concentrations were measured before and after a 12-h incubation by liquid-chromatography-coupled mass spectrometry (LC–MS); type: ADME; set-up: dose 2 uM, timepoint 0 vs 12 hours; conditions: 2 µM
# [14] = The drug is tested on Bacteroides coprophilus strain: DSM18228 for biotransformation. The drug concentrations were measured before and after a 12-h incubation by liquid-chromatography-coupled mass spectrometry (LC–MS); conditions: 2 µM
# [15] = bacteroides fragilis, 12 h, 2 µM; remark: listed apart in the source
# Description: The drug is tested on Bacteroides fragilis strain: 3397 (T10) for biotransformation. The drug concentrations were measured before and after a 12-h incubation by liquid-chromatography-coupled mass spectrometry (LC–MS)
# [16] = The drug is tested on Bacteroides fragilis strain: HMW615 for biotransformation. The drug concentrations were measured before and after a 12-h incubation by liquid-chromatography-coupled mass spectrometry (LC–MS); conditions: 2 µM
# [17] = The drug is tested on Clostridium sporogenes strain: ATCC15579 for biotransformation. The drug concentrations were measured before and after a 12-h incubation by liquid-chromatography-coupled mass spectrometry (LC–MS); conditions: 2 µM
# [18] = The drug is tested on Parabacteroides merdae strain: ATCC43184 for biotransformation. The drug concentrations were measured before and after a 12-h incubation by liquid-chromatography-coupled mass spectrometry (LC–MS); conditions: 2 µM
# [19] = The drug is tested on Bacteroides fragilis strain: ATCC43859 for biotransformation. The drug concentrations were measured before and after a 12-h incubation by liquid-chromatography-coupled mass spectrometry (LC–MS); conditions: 2 µM
SMILES,Bacterial Biotransformation [1],Bacterial Biotransformation [2],Bacterial Biotransformation [3],Bacterial Biotransformation [4],Bacterial Biotransformation [5],Bacterial Biotransformation [6],Bacterial Biotransformation [7],Bacterial Biotransformation [8],Bacterial Biotransformation [9],Bacterial Biotransformation [10],Bacterial Biotransformation [11],Bacterial Biotransformation [12],Bacterial Biotransformation [13],Bacterial Biotransformation [14],Bacterial Biotransformation [15],Bacterial Biotransformation [16],Bacterial Biotransformation [17],Bacterial Biotransformation [18],Bacterial Biotransformation [19]
CCCc1nc2c(C)cc(-c3nc4ccccc4n3C)cc2n1Cc1ccc(-c2ccccc2C(=O)O)cc1,Compound NOT metabolized,Compound metabolized,Compound NOT metabolized,Compound NOT metabolized,Compound NOT metabolized,Compound NOT metabolized,Compound NOT metabolized,Compound NOT metabolized,Compound metabolized,Compound metabolized,Compound metabolized,–,–,–,–,–,–,–,–
CC(O)(CS(=O)(=O)c1ccc(F)cc1)C(=O)Nc1ccc(C#N)c(C(F)(F)F)c1 (stereo not drawn) [BICALUTAMIDE],Compound NOT metabolized,–,–,Compound NOT metabolized,Compound metabolized,Compound NOT metabolized,Compound NOT metabolized,Compound NOT metabolized,Compound metabolized,Compound NOT metabolized,–,Compound NOT metabolized,Compound NOT metabolized,Compound NOT metabolized,Compound NOT metabolized,Compound metabolized,Compound NOT metabolized,Compound NOT metabolized,–
CC(C)(C)N.CCC[C@H](N[C@@H](C)C(=O)N1[C@H](C(=O)O)C[C@@H]2CCCC[C@@H]21)C(=O)OCC [PERINDOPRIL ERBUMINE],Compound NOT metabolized,Compound NOT metabolized,Compound NOT metabolized,Compound NOT metabolized,–,Compound NOT metabolized,Compound NOT metabolized,Compound NOT metabolized,–,Compound NOT metabolized,Compound NOT metabolized,Compound NOT metabolized,Compound NOT metabolized,Compound NOT metabolized,Compound NOT metabolized,–,Compound NOT metabolized,–,Compound NOT metabolized
CCOc1ccc(NC(C)=O)cc1 [PHENACETIN],Compound NOT metabolized,Compound NOT metabolized,Compound NOT metabolized,–,–,Compound NOT metabolized,Compound NOT metabolized,Compound NOT metabolized,Compound NOT metabolized,Compound NOT metabolized,Compound NOT metabolized,Compound NOT metabolized,Compound NOT metabolized,Compound NOT metabolized,Compound NOT metabolized,Compound NOT metabolized,Compound NOT metabolized,Compound NOT metabolized,Compound NOT metabolized
COc1cc2nc(N3CCN(C(=O)c4ccco4)CC3)nc(N)c2cc1OC [PRAZOSIN],Compound NOT metabolized,–,–,Compound NOT metabolized,Compound NOT metabolized,Compound NOT metabolized,Compound NOT metabolized,–,Compound NOT metabolized,Compound NOT metabolized,–,Compound NOT metabolized,Compound NOT metabolized,Compound NOT metabolized,Compound NOT metabolized,Compound NOT metabolized,–,Compound NOT metabolized,Compound NOT metabolized
CNNCc1ccc(C(=O)NC(C)C)cc1 [PROCARBAZINE],Compound NOT metabolized,Compound NOT metabolized,Compound NOT metabolized,Compound NOT metabolized,Compound NOT metabolized,Compound NOT metabolized,Compound NOT metabolized,Compound NOT metabolized,Compound metabolized,–,Compound NOT metabolized,Compound NOT metabolized,Compound NOT metabolized,Compound NOT metabolized,Compound NOT metabolized,Compound metabolized,Compound NOT metabolized,Compound NOT metabolized,Compound metabolized
CC(CN1c2ccccc2Sc2ccccc21)N(C)C (stereo not drawn) [PROMETHAZINE],Compound NOT metabolized,Compound NOT metabolized,–,Compound NOT metabolized,–,Compound NOT metabolized,–,Compound NOT metabolized,Compound NOT metabolized,Compound NOT metabolized,–,Compound NOT metabolized,Compound NOT metabolized,–,Compound NOT metabolized,Compound NOT metabolized,Compound NOT metabolized,Compound NOT metabolized,Compound NOT metabolized
CN(CCOc1ccc(CC2SC(=O)NC2=O)cc1)c1ccccn1.O=C(O)/C=C\C(=O)O (stereo not drawn) [ROSIGLITAZONE MALEATE],Compound NOT metabolized,Compound NOT metabolized,–,–,–,Compound NOT metabolized,Compound NOT metabolized,Compound NOT metabolized,–,Compound NOT metabolized,Compound NOT metabolized,Compound NOT metabolized,Compound NOT metabolized,Compound NOT metabolized,Compound NOT metabolized,–,Compound NOT metabolized,Compound NOT metabolized,–
COc1ccc(CN2CCNCC2)c(OC)c1OC.Cl.Cl [TRIMETAZIDINE DIHYDROCHLORIDE],Compound NOT metabolized,Compound metabolized,Compound NOT metabolized,Compound NOT metabolized,Compound NOT metabolized,Compound NOT metabolized,Compound NOT metabolized,Compound NOT metabolized,–,Compound metabolized,Compound metabolized,Compound NOT metabolized,Compound NOT metabolized,Compound metabolized,Compound metabolized,–,Compound NOT metabolized,Compound metabolized,–
CCOC(=O)C1=C[C@]2(CC)CCCN3CCc4c(n1c1ccccc41)[C@@H]32 [VINPOCETINE],–,Compound NOT metabolized,Compound NOT metabolized,Compound NOT metabolized,–,Compound NOT metabolized,Compound NOT metabolized,Compound NOT metabolized,–,Compound NOT metabolized,–,Compound NOT metabolized,Compound NOT metabolized,Compound NOT metabolized,Compound NOT metabolized,Compound NOT metabolized,Compound NOT metabolized,Compound NOT metabolized,Compound NOT metabolized

# Source: ChEMBL document CHEMBL5303573, “Mapping human microbiome drug metabolism by gut bacteria and their genes” (Nature, 2019)
